{
  "source": "patent US20140047570A1",
  "about": "“ANIMAL MODEL OF HUMAN CANCER AND METHODS OF USE” (H. LEE MOFFITT CANCER CENTER AND RESEARCH INSTITUTE, INC., priority 2011, published 2014)",
  "tested_on": "liver tumor of human pancreatic cancer",
  "experiment": "Diffusion MRI analysis of tumor response to drug treatment in vivo (liver xenograft)",
  "details": "human pancreatic cancer tumor implanted in mouse liver; intraperitoneally 1 mg/kg/d; before vs 24 hours after initiation of treatment; FIG. 4C",
  "text": "FIGS. 4A-D show MRI analysis to assess tumor response to drug treatment in vivo. To evaluate tumor response to treatment in vivo in addition to US imaging technologies such as MRI that utilizes anatomical MRI, diffusion MRI, spectroscopy and Dynamic Contrast Enhanced (DCE) MRI can be used. Of these, diffusion, spectroscopy and DCE show great promise in determining early response to drug treatment, even before changes in tumor volume are observed. Anatomical and diffusion MRI techniques were used on the same liver tumor of human pancreatic cancer before (FIG. 4A) and 24 hours after (FIG. 4B) the initiation of gemcitabine (intraperitoneally 1 mg/kg/d) treatment. […] Laparoscopy or laparotomy can be used to assess tumor growth and to harvest tumor cells in liver (FIG. 4D).",
  "data": [
    {"smiles": "Nc1ccn([C@@H]2O[C@H](CO)[C@@H](O)C2(F)F)c(=O)n1", "note": "[gemcitabine]", "values": [
      {"measurement": "tumor water diffusion by diffusion MRI (early response to drug treatment)", "value": "right shift in tumor water diffusion"}
    ]}
  ]
}
